From the kinase profiling compilation of Christmann-Franck et al. (2016)

Tests used:
Assay in all cases: KINOMEscan competition binding
Conditions in all cases: compound 10.0 µM
YSK4 (human) = YSK4 (human) (UniProt Q56UN5)
RIOK2 (human) = RIOK2 (human) (UniProt Q9BVS4)
[1] = system: KIT (human), P10721 [D816V]
RPS6KA4 KD1 (human) = RPS6KA4 KD1 (human) (UniProt O75676)
PLK4 (human) = PLK4 (human) (UniProt O00444)
MAP2K6 (human) = MAP2K6 (human) (UniProt P52564)
DMPK (human) = DMPK (human) (UniProt Q09013)
IGF1R (human) = IGF1R (human) (UniProt P08069)
PAK4 (human) = PAK4 (human) (UniProt O96013)
NEK7 (human) = NEK7 (human) (UniProt Q8TDX7)
HIPK2 (human) = HIPK2 (human) (UniProt Q9H2X6)
RIPK2 (human) = RIPK2 (human) (UniProt O43353)
[2] = system: PIK3CA (human), P42336 [E545A]
PIK3CB (human) = PIK3CB (human) (UniProt P42338)
MAP4K1 (human) = MAP4K1 (human) (UniProt Q92918)
FER (human) = FER (human) (UniProt P16591)
[3] = system: PIK3CA (human), P42336 [H1047Y]
STK17B (human) = STK17B (human) (UniProt O94768)
EPHA4 (human) = EPHA4 (human) (UniProt P54764)
EPHA6 (human) = EPHA6 (human) (UniProt Q9UF33)
DCLK1 (human) = DCLK1 (human) (UniProt O15075)
MAP3K1 (human) = MAP3K1 (human) (UniProt Q13233)
MYLK3 (human) = MYLK3 (human) (UniProt Q32MK0)
STK4 (human) = STK4 (human) (UniProt Q13043)
RAF1 (human) = RAF1 (human) (UniProt P04049)
[4] = molecular target: JAK2 JH1 catalytic (human) (UniProt O60674)
STK24 (human) = STK24 (human) (UniProt Q9Y6E0)
CDK8 (human) = CDK8 (human) (UniProt P49336)
FGFR1 (human) = FGFR1 (human) (UniProt P11362)
MARK3 (human) = MARK3 (human) (UniProt P27448)
ACVR1 (human) = ACVR1 (human) (UniProt Q04771)
[5] = system: PIK3CA (human), P42336 [Q546K]
PIK3C2B (human) = PIK3C2B (human) (UniProt O00750)
ACVR2B (human) = ACVR2B (human) (UniProt Q13705)
MLTK (human) = MLTK (human) (UniProt Q9NYL2)
TXK (human) = TXK (human) (UniProt P42681)
CASK (human) = CASK (human) (UniProt O14936)
TYRO3 (human) = TYRO3 (human) (UniProt Q06418)
PAK6 (human) = PAK6 (human) (UniProt Q9NQU5)
SIK3 (human) = SIK3 (human) (UniProt Q9Y2K2)

Chain of MLTK (human) (Q9NYL2 whole entry, looked up): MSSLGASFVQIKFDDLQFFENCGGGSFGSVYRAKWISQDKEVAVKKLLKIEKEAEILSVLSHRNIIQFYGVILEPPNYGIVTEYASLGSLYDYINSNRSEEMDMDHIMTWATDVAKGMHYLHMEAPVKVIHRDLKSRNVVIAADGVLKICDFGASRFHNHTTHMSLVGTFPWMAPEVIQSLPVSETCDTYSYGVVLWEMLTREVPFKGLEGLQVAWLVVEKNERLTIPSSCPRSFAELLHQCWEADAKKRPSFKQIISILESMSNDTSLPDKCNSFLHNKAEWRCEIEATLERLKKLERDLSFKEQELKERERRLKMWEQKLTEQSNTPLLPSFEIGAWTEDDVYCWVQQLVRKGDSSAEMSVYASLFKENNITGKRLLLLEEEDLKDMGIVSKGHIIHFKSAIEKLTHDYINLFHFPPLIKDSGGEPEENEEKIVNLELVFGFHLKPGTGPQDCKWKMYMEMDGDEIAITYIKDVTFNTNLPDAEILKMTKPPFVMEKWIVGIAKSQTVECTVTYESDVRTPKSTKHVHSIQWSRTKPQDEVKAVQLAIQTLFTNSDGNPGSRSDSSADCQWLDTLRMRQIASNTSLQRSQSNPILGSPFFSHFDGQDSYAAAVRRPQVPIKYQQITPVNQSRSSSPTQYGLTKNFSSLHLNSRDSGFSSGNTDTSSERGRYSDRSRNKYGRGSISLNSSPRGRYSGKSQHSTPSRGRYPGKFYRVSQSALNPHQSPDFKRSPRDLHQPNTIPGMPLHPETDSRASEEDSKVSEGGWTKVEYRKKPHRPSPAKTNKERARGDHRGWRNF
Chain of PIK3C2B (human) (O00750 whole entry, looked up): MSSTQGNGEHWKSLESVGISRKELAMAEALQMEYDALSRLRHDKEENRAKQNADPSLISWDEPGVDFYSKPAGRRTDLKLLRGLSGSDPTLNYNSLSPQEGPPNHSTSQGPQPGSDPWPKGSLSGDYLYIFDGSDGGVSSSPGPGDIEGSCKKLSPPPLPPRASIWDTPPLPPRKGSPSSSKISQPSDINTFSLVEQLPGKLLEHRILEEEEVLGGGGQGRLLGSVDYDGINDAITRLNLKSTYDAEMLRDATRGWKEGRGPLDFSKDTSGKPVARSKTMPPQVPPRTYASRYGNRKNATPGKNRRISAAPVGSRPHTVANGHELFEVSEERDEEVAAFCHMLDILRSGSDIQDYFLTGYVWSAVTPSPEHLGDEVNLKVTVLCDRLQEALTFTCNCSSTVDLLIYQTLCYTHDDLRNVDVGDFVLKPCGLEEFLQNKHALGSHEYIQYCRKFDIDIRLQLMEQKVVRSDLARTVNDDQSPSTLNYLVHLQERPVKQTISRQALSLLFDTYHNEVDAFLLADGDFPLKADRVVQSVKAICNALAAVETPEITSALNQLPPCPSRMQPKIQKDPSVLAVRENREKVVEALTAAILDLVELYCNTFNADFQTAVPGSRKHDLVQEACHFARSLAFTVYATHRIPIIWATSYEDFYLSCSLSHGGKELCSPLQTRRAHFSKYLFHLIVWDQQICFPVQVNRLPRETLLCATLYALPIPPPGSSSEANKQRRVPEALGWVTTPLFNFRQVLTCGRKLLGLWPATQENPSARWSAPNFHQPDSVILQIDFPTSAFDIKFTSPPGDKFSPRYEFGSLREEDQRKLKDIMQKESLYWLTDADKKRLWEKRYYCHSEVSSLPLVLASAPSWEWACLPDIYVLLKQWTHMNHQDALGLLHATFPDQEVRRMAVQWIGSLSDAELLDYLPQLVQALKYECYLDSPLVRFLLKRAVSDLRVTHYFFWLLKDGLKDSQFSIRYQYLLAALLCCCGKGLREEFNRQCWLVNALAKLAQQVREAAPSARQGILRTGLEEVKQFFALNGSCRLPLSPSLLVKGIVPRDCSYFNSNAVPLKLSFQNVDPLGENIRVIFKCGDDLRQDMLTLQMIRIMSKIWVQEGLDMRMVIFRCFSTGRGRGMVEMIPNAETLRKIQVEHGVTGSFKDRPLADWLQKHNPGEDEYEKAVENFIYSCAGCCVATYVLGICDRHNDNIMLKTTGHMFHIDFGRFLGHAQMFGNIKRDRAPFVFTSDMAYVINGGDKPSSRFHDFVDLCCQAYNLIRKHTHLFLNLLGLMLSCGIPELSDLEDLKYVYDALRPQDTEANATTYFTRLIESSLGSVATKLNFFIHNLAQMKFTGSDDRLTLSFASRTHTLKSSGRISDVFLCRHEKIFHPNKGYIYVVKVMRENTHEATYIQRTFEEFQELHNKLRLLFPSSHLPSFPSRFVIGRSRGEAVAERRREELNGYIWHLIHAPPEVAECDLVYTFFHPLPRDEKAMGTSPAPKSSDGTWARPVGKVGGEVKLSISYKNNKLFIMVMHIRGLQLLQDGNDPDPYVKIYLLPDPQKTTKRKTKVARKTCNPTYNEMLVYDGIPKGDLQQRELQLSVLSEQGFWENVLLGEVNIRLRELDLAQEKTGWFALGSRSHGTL
Chain of CDK8 (human) (P49336 whole entry, looked up): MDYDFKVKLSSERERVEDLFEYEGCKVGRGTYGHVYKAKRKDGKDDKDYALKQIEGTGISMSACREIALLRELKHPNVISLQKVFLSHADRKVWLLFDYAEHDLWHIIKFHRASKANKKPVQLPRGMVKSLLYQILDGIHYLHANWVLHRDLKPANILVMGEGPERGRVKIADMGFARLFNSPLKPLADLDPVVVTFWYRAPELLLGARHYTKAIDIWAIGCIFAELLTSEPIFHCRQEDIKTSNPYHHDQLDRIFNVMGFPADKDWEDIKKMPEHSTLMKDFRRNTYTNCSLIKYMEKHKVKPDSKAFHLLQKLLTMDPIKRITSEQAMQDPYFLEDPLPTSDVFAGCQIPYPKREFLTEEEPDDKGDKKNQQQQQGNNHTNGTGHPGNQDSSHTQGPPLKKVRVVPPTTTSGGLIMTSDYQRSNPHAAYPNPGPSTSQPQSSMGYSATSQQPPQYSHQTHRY
Chain of FER (human) (P16591 whole entry, looked up): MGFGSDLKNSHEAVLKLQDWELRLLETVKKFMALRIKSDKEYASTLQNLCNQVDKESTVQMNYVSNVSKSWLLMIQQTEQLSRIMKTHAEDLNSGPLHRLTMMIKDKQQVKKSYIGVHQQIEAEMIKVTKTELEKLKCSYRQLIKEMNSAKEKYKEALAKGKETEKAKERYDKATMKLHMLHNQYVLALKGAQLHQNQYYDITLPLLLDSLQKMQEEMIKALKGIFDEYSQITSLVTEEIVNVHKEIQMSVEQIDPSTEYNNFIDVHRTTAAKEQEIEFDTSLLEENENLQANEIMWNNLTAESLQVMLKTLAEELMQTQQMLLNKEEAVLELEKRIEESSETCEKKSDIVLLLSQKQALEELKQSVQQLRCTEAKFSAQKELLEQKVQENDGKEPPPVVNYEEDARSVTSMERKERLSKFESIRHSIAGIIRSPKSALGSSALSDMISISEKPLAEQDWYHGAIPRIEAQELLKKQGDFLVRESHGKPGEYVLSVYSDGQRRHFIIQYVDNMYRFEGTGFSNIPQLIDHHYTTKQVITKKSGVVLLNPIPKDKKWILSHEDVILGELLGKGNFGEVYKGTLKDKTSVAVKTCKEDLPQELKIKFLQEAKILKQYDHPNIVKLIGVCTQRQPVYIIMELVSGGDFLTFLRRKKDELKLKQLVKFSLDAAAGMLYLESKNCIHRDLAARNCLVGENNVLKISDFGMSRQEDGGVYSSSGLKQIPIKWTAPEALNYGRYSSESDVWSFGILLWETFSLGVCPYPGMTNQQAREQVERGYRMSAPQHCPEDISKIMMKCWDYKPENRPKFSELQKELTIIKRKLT
Chain of PIK3CB (human) (P42338 whole entry, looked up): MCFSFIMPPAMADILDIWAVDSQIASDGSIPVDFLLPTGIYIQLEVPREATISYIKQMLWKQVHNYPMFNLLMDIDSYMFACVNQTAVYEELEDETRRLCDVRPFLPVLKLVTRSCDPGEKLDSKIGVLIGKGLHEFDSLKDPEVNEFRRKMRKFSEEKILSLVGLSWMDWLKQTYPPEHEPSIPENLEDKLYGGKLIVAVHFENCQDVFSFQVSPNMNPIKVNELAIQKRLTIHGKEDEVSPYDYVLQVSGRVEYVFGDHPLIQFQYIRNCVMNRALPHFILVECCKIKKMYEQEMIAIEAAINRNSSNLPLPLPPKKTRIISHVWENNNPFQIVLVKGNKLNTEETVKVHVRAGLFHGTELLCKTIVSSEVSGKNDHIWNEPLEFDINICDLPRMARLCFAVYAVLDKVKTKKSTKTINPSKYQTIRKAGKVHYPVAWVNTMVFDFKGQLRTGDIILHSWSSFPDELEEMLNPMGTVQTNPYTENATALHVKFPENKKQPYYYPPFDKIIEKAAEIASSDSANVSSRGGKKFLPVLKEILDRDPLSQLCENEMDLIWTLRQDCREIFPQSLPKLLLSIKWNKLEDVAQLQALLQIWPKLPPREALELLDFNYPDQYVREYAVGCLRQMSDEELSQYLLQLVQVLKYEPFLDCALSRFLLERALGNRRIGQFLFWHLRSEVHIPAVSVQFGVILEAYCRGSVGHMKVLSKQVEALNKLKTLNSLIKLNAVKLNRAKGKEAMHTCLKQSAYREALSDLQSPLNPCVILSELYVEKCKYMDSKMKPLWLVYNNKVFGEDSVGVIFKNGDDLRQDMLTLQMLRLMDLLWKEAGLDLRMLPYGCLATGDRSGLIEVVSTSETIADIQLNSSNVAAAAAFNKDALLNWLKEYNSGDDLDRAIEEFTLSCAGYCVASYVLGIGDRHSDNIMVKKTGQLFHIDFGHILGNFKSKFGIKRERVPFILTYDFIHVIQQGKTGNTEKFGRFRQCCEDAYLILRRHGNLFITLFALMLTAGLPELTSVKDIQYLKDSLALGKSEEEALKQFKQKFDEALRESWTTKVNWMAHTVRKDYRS
Chain of NEK7 (human) (Q8TDX7 whole entry, looked up): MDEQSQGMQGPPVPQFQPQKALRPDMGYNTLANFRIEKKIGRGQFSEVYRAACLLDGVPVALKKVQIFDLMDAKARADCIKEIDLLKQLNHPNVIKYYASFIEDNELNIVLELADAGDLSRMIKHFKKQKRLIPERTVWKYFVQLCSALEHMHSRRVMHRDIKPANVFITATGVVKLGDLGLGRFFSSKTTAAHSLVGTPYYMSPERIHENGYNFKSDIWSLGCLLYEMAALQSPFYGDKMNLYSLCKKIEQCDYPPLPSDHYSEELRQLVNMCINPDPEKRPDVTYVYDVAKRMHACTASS

SMILES | kinase still bound, per cent of control (YSK4 (human)) [%] | kinase still bound, per cent of control (RIOK2 (human)) [%] | kinase still bound, per cent of control [1] [%] | kinase still bound, per cent of control (RPS6KA4 KD1 (human)) [%] | kinase still bound, per cent of control (PLK4 (human)) [%] | kinase still bound, per cent of control (MAP2K6 (human)) [%] | kinase still bound, per cent of control (DMPK (human)) [%] | kinase still bound, per cent of control (IGF1R (human)) [%] | kinase still bound, per cent of control (PAK4 (human)) [%] | kinase still bound, per cent of control (NEK7 (human)) [%] | kinase still bound, per cent of control (HIPK2 (human)) [%] | kinase still bound, per cent of control (RIPK2 (human)) [%] | kinase still bound, per cent of control [2] [%] | kinase still bound, per cent of control (PIK3CB (human)) [%] | kinase still bound, per cent of control (MAP4K1 (human)) [%] | kinase still bound, per cent of control (FER (human)) [%] | kinase still bound, per cent of control [3] [%] | kinase still bound, per cent of control (STK17B (human)) [%] | kinase still bound, per cent of control (EPHA4 (human)) [%] | kinase still bound, per cent of control (EPHA6 (human)) [%] | further results
O=C(NC1CC1)c1cccc(-c2ccc3c(NC(=O)C4CC4)n[nH]c3c2)c1 | 5.9 | 78 | 97 | 100 | 13 | 55 | 100 | 100 | 79 | 100 | 36 | 72 | 93 | 100 | 68 | 78 | 89 | 100 | 100 | 100 | kinase still bound, per cent of control (DCLK1 (human)): 96%; kinase still bound, per cent of control (MAP3K1 (human)): 100%; kinase still bound, per cent of control (MYLK3 (human)): 46%; kinase still bound, per cent of control (STK4 (human)): 76%; kinase still bound, per cent of control (RAF1 (human)): 78%; kinase still bound, per cent of control [4]: 18%; kinase still bound, per cent of control (STK24 (human)): 82%; kinase still bound, per cent of control (CDK8 (human)): 76%; kinase still bound, per cent of control (FGFR1 (human)): 100%; kinase still bound, per cent of control (MARK3 (human)): 75%; kinase still bound, per cent of control (ACVR1 (human)): 48%; kinase still bound, per cent of control [5]: 98%; kinase still bound, per cent of control (PIK3C2B (human)): 83%; kinase still bound, per cent of control (ACVR2B (human)): 84%; kinase still bound, per cent of control (MLTK (human)): 100%; kinase still bound, per cent of control (TXK (human)): 77%; kinase still bound, per cent of control (CASK (human)): 82%; kinase still bound, per cent of control (TYRO3 (human)): 100%; kinase still bound, per cent of control (PAK6 (human)): 61%; kinase still bound, per cent of control (SIK3 (human)): 100%
CCN1CCN(Cc2ccc(Nc3ncc4c(n3)N(C)c3ccccc3C(=O)N4C)cc2C(F)(F)F)CC1 | 80 | 100 | 46 | 100 | 0.1 | 75 | 91 | 100 | 80 | 88 | 100 | 6.4 | 6.2 | 68 | 18 | 100 | 3.3 | 100 | 100 | 90 | kinase still bound, per cent of control (DCLK1 (human)): 4.4%; kinase still bound, per cent of control (MAP3K1 (human)): 55%; kinase still bound, per cent of control (MYLK3 (human)): 100%; kinase still bound, per cent of control (STK4 (human)): 72%; kinase still bound, per cent of control (RAF1 (human)): 100%; kinase still bound, per cent of control [4]: 0%; kinase still bound, per cent of control (STK24 (human)): 35%; kinase still bound, per cent of control (CDK8 (human)): 94%; kinase still bound, per cent of control (FGFR1 (human)): 17%; kinase still bound, per cent of control (MARK3 (human)): 11%; kinase still bound, per cent of control (ACVR1 (human)): 52%; kinase still bound, per cent of control [5]: 3.2%; kinase still bound, per cent of control (PIK3C2B (human)): 71%; kinase still bound, per cent of control (ACVR2B (human)): 29%; kinase still bound, per cent of control (MLTK (human)): 65%; kinase still bound, per cent of control (TXK (human)): 34%; kinase still bound, per cent of control (CASK (human)): 15%; kinase still bound, per cent of control (TYRO3 (human)): 92%; kinase still bound, per cent of control (PAK6 (human)): 79%; kinase still bound, per cent of control (SIK3 (human)): 74%
